Measured values as given in patent US20230134714A1, “COMPOSITIONS COMPRISING BACTERIAL STRAINS” (4D PHARMA RESEARCH LIMITED, priority 2018, published 2023).
Structures can show the parent of a compound that is named as a salt.

Tests used:
[1] = system: graft versus host disease (GVHD) induced in Balb/C mice; test: GVHD model (TBI plus allogeneic cell transfer); type: in vivo
Excerpt: All animals were weighed and randomized by weight into treatment groups prior to study start. Prior to GVHD induction on Days −1 and 0, all animals were pre-treated (PO) with PBS (Groups 1-4), NCIMB 43171 (Group 5), or Butyrate salt control (Group 6) daily starting on Day −14. Butyrate was used as a positive control as butyrate deficit has been identified in the gut of GVHD patients.
GVHD was induced in mice using a single acute dose of 8 Gy of total body irradiation (TBI) on Day −1. On Day 0, these recipient mice were given an intravenous injection of a combination of T cell depleted bone marrow cells and splenic cells from donor C57Bl/6 mice in PBS. Bone marrow cells were isolated using standard flushing practices, and were T cell depleted using the cell surface T cell antigen CD3, with a CD3-biotin kit (Miltenyi Biotec catalog 130-094-973). Splenocytes were isolated using Miltenyi GentleMACS Dissociators. Animals in Group 1 served as naïve controls and received neither TBI nor cell transfer. […] Animals in Group 3 served as syngeneic adoptive transfer controls; these animals received 8 Gy of TBI on Day −1, and an intravenous injection of a combination of T cell depleted bone marrow cells and splenic cells from donor Balb/C mice in sterile PBS.
Daily test article dosing continued for the duration of the study (Days −14 to 30). Animal survival was recorded daily, as an indication of GVHD severity. Animals were also weighed, observed, and given a clinical GVHD score daily for the duration of the study following GVHD induction. The GVHD score was assessed by a standard scoring system based on five criteria (Table 21): percentage of weight change, posture (hunching), activity, fur texture, and skin integrity (maximum score=10).
On Day 29, all surviving animals underwent endoscopy to monitor colonic inflammation.
On Day 30, blood was collected by RO bleed; blood (approximately 150-300 μL) was collected into two tubes—approximately two third of the blood was collected into K2EDTA tubes, and the remaining one third was collected into lithium-heparin tubes. Both samples were centrifuged and processed for plasma, and plasma tubes were clearly labeled to indicate the anti-coagulant used. For the K2EDTA sample, plasma was aliquoted as follows: 25 μL (for use in downstream citrulline assay), and remainder. All plasma was frozen at −80° C. All K2EDTA samples were assessed for citrulline by ELISA upon study completion

[2] = system: HDAC; test: Global HDAC activity analysis in HT-29 cells; type: cell-based; settings: for inhibition of total HDAC activity: whole HT-29 cells or cell lysate not specified
Description: Whole cells and cell free supernatants of stationary phase 43042 cultures were isolated by centrifugation and filtering in a 0.22 uM filter. HT-29 cells were used 3 days' post confluence and stepped down in 1 mL DTS 24 hours prior to commencement of the experiment. The HT-29 cells were challenged with 10% cell free supernatant diluted in DTS and this was left to incubate for 48 hours. […] proteins were then extracted using the Sigma Aldrich […] extraction kit and samples were snap frozen prior to HDAC activity measurement. HDAC activity kit was assessed fluorometrically using the Sigma Aldrich (UK) kit.
(§1) To investigate which metabolites were responsible for the strain-induced HDAC inhibition, different concentrations of hexanoic acid, valeric acid and sodium butyrate were measured for their HDAC inhibition on whole HT-29 cells and on HT-29 cell lysate.

[3] = system: HDAC; test: HDAC inhibition on HT-29 cell lysate; type: biochemical; settings: different concentrations
Description: as §1

[4] = compared with Group 4 (PBS-TBI+allogeneic transfer)

CCCC(=O)O [Butyrate salt control]
mean body weight over the course of the study ([1]; compared to Group 1 (PBS-naive)): significantly decreased | mean body weight over the course of the study ([1]; compared to Group 3 (PBS-TBI+syngeneic transfer)): significantly decreased | mean body weight over the course of the study [1, 4]: No significant differences | mean colitis severity scores ([1]; endoscopy Day 29, compared to naive mice (Group 1)): increased

CCCCC(=O)O [Valeric acid, valeric acid]
inhibition of total HDAC activity [2]: inhibited total HDAC activity

CCCCCC(=O)O [hexanoic acid]
inhibition of total HDAC activity [2]: did show significant inhibitory activity

CCCC(=O)[O-].[Na+] [sodium butyrate, Sodium butyrate]
inhibition of HDAC activity on HT-29 cell lysate [3]: significant (P<0.05) inhibition | inhibition of HDAC activity on whole HT-29 cells ([2]; different concentrations, whole cells): significant (P<0.05) inhibition

C=CC[C@@H]1/C=C(\C)C[C@H](C)C[C@H](OC)[C@H]2O[C@@](O)(C(=O)C(=O)N3CCCC[C@H]3C(=O)O[C@H](/C(C)=C/[C@@H]3CC[C@@H](O)[C@H](OC)C3)[C@H](C)[C@@H](O)CC1=O)[C@H](C)C[C@@H]2OC [tacrolimus]
mean GVHD scores ([1]; compared to Group 3): trend was also observed | mean body weight over the course of the study [1, 4]: same trend was observed
